Patent US5843908A, “Pradimicins l and fl, and derivatives thereof” (Bristol-Myers Squibb Company, priority 1990, dated 1998)
In brackets after ≈: the same amount, converted by molar mass.

What was measured:
[1] = test system: Candida tropicalis IAM 10241; test: In vitro antifungal activity, serial agar dilution, yeast morphology agar (Tables 4b, 4c); assay type: cell-based; conditions: IAM10241, 60 h, Candida tropicalis IAM 10241 ("IAN 10241" in Table 4b), 1/15 M phosphate buffer, 10^6 cells/ml, 40 hours at 28° C.
Method: (§1) Representative compounds of the present invention were tested in vitro against various fungi by serial agar dilution method in either Sabouraud dextrose agar or yeast morphology agar containing 1/15 M phosphate buffer. Thus, approximately 0.003 ml of fungal suspension containing 10^6 -10^7 cells/ml was applied to the surface of agar plates containing the test antibiotic. The minimum inhibitory concentration (MIC) values for the test compounds were recorded after the cultures had been incubated for 40-60 hours at 28° C.
(§2) ^1. Determined after incubation for 40 hours at 28° C.
(§3) (Trichophyton mentagrophytes: 60 hours, 28° C.).
(§4) ^2. Inoculum size 10^6 cells/ml (Trichophyton mentagrophytes:
(§5) 10^7 cells/ml) in yeast morphology agar containing 1/15 M phosphate
(§6) (Trichophyton mentaprophytes: 60 hours, 28° C.).

Candida albicans A9540 = test: as above; assay type: cell-based; conditions: 60 h, 1/15 M phosphate buffer, 10^6 cells/ml, 40 hours at 28° C.
Method: as §1, §2, §3, §4, §5, §6

[2] = test system: Candida albicans ATCC 32354 (B311); test: as above; assay type: cell-based; conditions: ATCC32354, 60 h, 1/15 M phosphate buffer, 10^6 cells/ml, 40 hours at 28° C.
Method: as §1, §2, §3, §4, §5, §6

[3] = test system: Cryptococcus neoformans IAM 4514; test: as above; assay type: cell-based; conditions: IAM4514, 60 h, 1/15 M phosphate buffer, 10^6 cells/ml, 40 hours at 28° C.
Method: as §1, §2, §3, §4, §5, §6

[4] = test system: Aspergillus fumigatus IAM 2034; test: as above; assay type: cell-based; conditions: IAM2034, 60 h, 1/15 M phosphate buffer, 10^6 cells/ml, 40 hours at 28° C.
Method: as §1, §2, §3, §4, §5, §6

[5] = test system: Cryptococcus neoformans D49; test: as above; assay type: cell-based; conditions: 60 h, 1/15 M phosphate buffer, 10^6 cells/ml, 40 hours at 28° C.
Method: as §1, §2, §3, §4, §5, §6

[6] = test system: Candida tropicalis 85-8 (Kitasato); test: as above; assay type: cell-based; conditions: 60 h, 1/15 M phosphate buffer, 10^6 cells/ml, 40 hours at 28° C.
Method: as §1, §2, §3, §4, §5, §6

[7] = test system: Trichophyton mentagrophytes #4329; test: as above; assay type: cell-based; conditions: 1/15 M phosphate buffer, 10^7 cells/ml, 60 hours, 28° C.
Method: as §1, §2, §3, §4, §5, §6

[8] = test system: Candida albicans 83-2-14 (Juntendo); test: as above; assay type: cell-based; conditions: 60 h, 1/15 M phosphate buffer, 10^6 cells/ml, 40 hours at 28° C.
Method: as §1, §2, §3, §4, §5, §6

[9] = test system: Saccharomyces cerevisiae ATCC 9763; test: as above; assay type: cell-based; conditions: ATCC9763, 60 h, 1/15 M phosphate buffer, 10^6 cells/ml, 40 hours at 28° C.
Method: as §1, §2, §3, §4, §5, §6

C. albicans A9540 = test: In vitro antifungal activity, serial agar dilution, Sabouraud dextrose agar (Table 4a); assay type: cell-based; conditions: Candida albicans, 10^6 CFU/ml, 40-60 hours at 28° C.
Method: as §1
(§7) Medium: Sabouraud dextrose agar

[10] = test system: Aspergillus fumigatus IAM2530; test: as above; assay type: cell-based; conditions: 10^6 CFU/ml, 40-60 hours at 28° C.
Method: as §1, §7

[11] = test system: Sporothrix schenckii IF08158; test: as above; assay type: cell-based; conditions: 10^6 CFU/ml, 40-60 hours at 28° C.
Method: as §1, §7

A. fumigatus IAM2034 = test: as above; assay type: cell-based; conditions: Aspergillus fumigatus, 10^6 CFU/ml, 40-60 hours at 28° C.
Method: as §1, §7

Mucor spinosus IF05317 = test: as above; assay type: cell-based; conditions: 10^6 CFU/ml, 40-60 hours at 28° C.
Method: as §1, §7

[12] = test system: Trichophyton mentagrophytes D155; test: as above; assay type: cell-based; conditions: 10^6 CFU/ml, 40-60 hours at 28° C.
Method: as §1, §7

[13] = test system: Cryptococcus neoformans D49; test: as above; assay type: cell-based; conditions: 10^6 CFU/ml, 40-60 hours at 28° C.
Method: as §1, §7

T. mentagrophytes #4329 = test: as above; assay type: cell-based; conditions: Trichophyton mentagrophytes, 10^6 CFU/ml, 40-60 hours at 28° C.
Method: as §1, §7

Candida albicans IAM4888 = test: as above; assay type: cell-based; conditions: 10^6 CFU/ml, 40-60 hours at 28° C.
Method: as §1, §7

[14] = test system: Fusarium moniliforme A2284; test: as above; assay type: cell-based; conditions: Fusarium verticillioides, 10^6 CFU/ml, 40-60 hours at 28° C.
Method: as §1, §7

C. neoformans IAM4514 = test: as above; assay type: cell-based; conditions: Cryptococcus neoformans, 10^6 CFU/ml, 40-60 hours at 28° C.
Method: as §1, §7

[15] = test system: Petriellidium boydii IF08078; test: as above; assay type: cell-based; conditions: Scedosporium boydii, 10^6 CFU/ml, 40-60 hours at 28° C.
Method: as §1, §7

[16] = test system: Blastomyces dermatitidis D40; test: as above; assay type: cell-based; conditions: 10^6 CFU/ml, 40-60 hours at 28° C.
Method: as §1, §7

[17] = test system: Candida albicans ATCC 38247 (polyene-R); test: In vitro antifungal activity, serial agar dilution, yeast morphology agar (Table 4b); assay type: cell-based; conditions: ATCC38247, 60 h
Method: as §1, §2, §3, §4, §5

Solubility = assay type: physicochemical

Row | Structure (SMILES) | MIC [1] [µg/mL] | MIC (Candida albicans A9540) [µg/mL] | MIC [2] [µg/mL] | MIC [3] [µg/mL] | MIC [4] [µg/mL] | MIC [5] [µg/mL] | MIC [6] [µg/mL] | MIC [7] [µg/mL] | MIC [8] [µg/mL] | MIC [9] [µg/mL] | MIC (C. albicans A9540) [µg/mL] | MIC [10] [µg/mL] | MIC [11] [µg/mL] | MIC (A. fumigatus IAM2034) [µg/mL] | MIC (Mucor spinosus IF05317) [µg/mL] | MIC [12] [µg/mL] | MIC [13] [µg/mL] | MIC (T. mentagrophytes #4329) [µg/mL] | MIC (Candida albicans IAM4888) [µg/mL] | MIC [14] [µg/mL] | also measured
1 | COc1cc(O)c2c(c1)C(=O)c1c(cc3c(c1O)-c1c(cc(C)c(C(=O)N[C@H](CO)C(=O)O)c1O)[C@H](O[C@@H]1O[C@H](C)[C@H](N(C)C)[C@H](O[C@@H]4O[C@H](CO)[C@@H](O)[C@H](O)[C@H]4O)[C@H]1O)[C@H]3O)C2=O [N-Methyl Pradimicin FL] | 12.5 (≈ 13.9 µM) | 6.3 (≈ 6.99 µM) | 6.3 (≈ 6.99 µM) | 6.3 (≈ 6.99 µM) | 6.3 (≈ 6.99 µM) | 6.3 (≈ 6.99 µM) | 12.5 (≈ 13.9 µM) | 6.3 (≈ 6.99 µM) | 6.3 (≈ 6.99 µM) | 3.1 (≈ 3.44 µM) |  |  |  |  |  |  |  |  |  |  | 
2 | COc1cc(O)c2c(c1)C(=O)c1c(cc3c(c1O)-c1c(cc(C)c(C(=O)N[C@H](C)C(=O)O)c1O)[C@H](O[C@@H]1O[C@H](C)[C@H](N(C)C)[C@H](O[C@@H]4O[C@H](CO)[C@@H](O)[C@H](O)[C@H]4O)[C@H]1O)[C@H]3O)C2=O [N-Methyl Pradimicin L] |  |  |  |  |  |  |  |  |  |  | 12.5 (≈ 14.1 µM) | 6.3 (≈ 7.12 µM) | 1.6 (≈ 1.81 µM) | 6.3 (≈ 7.12 µM) | > 100 | 25 (≈ 28.3 µM) | 6.3 (≈ 7.12 µM) | 25 (≈ 28.3 µM) | 12.5 (≈ 14.1 µM) | 12.5 (≈ 14.1 µM) | MIC (C. neoformans IAM4514): 6.3 µg/mL (≈ 7.12 µM); MIC [15]: 25 µg/mL (≈ 28.3 µM); MIC [16]: 6.3 µg/mL (≈ 7.12 µM)
3 | CN[C@@H]1[C@H](O[C@@H]2OC[C@@H](O)[C@H](O)[C@H]2O)[C@@H](O)[C@H](O[C@H]2c3cc(C)c(C(=O)N[C@H](C)C(=O)O)c(O)c3-c3c(cc4c(c3O)C(=O)c3cc(OC)cc(O)c3C4=O)[C@@H]2O)O[C@@H]1C [Pradimicin A, pradimicin A, reference compound] | > 100 | 12.5 (≈ 14.9 µM) | 6.3 (≈ 7.49 µM) | 1.6 (≈ 1.9 µM) | 1.6 (≈ 1.9 µM) | 1.6 (≈ 1.9 µM) | 12.5 (≈ 14.9 µM) | 3.1 (≈ 3.69 µM) | 12.5 (≈ 14.9 µM) | 6.3 (≈ 7.49 µM) | 100 (≈ 119 µM) | 1.6 (≈ 1.9 µM) | 1.6 (≈ 1.9 µM) | 3.1 (≈ 3.69 µM) | > 100 | 1.6 (≈ 1.9 µM) | 1.6 (≈ 1.9 µM) | 6.3 (≈ 7.49 µM) | 6.3 (≈ 7.49 µM) | 6.3 (≈ 7.49 µM) | MIC [17]: 6.3 µg/mL (≈ 7.49 µM); MIC (C. neoformans IAM4514): 1.6 µg/mL (≈ 1.9 µM); MIC [15]: 6.3 µg/mL (≈ 7.49 µM); MIC [16]: 6.3 µg/mL (≈ 7.49 µM)
4 | CN[C@@H]1[C@H](O[C@@H]2O[C@H](CO)[C@@H](O)[C@H](O)[C@H]2O)[C@@H](O)[C@H](O[C@H]2c3cc(C)c(C(=O)N[C@H](CO)C(=O)O)c(O)c3-c3c(cc4c(c3O)C(=O)c3cc(OC)cc(O)c3C4=O)[C@@H]2O)O[C@@H]1C [Pradimicin FL, pradimicin FL] | 6.3 (≈ 7.1 µM) | 6.3 (≈ 7.1 µM) | 6.3 (≈ 7.1 µM) | 1.6 (≈ 1.8 µM) | 3.1 (≈ 3.5 µM) | 3.1 (≈ 3.5 µM) | 6.3 (≈ 7.1 µM) | 3.1 (≈ 3.5 µM) | 6.3 (≈ 7.1 µM) | 3.1 (≈ 3.5 µM) |  |  |  |  |  |  |  |  |  |  | MIC [17]: 3.1 µg/mL (≈ 3.5 µM)
5 | CN[C@@H]1[C@H](O[C@@H]2O[C@H](CO)[C@@H](O)[C@H](O)[C@H]2O)[C@@H](O)[C@H](O[C@H]2c3cc(C)c(C(=O)N[C@H](C)C(=O)O)c(O)c3-c3c(cc4c(c3O)C(=O)c3cc(OC)cc(O)c3C4=O)[C@@H]2O)O[C@@H]1C [Pradimicin L, pradimicin L] | 100 (≈ 115 µM) | 25 (≈ 28.7 µM) | 6.3 (≈ 7.23 µM) | 0.8 (≈ 0.919 µM) | 3.1 (≈ 3.56 µM) | 1.6 (≈ 1.84 µM) | > 100 | 3.1 (≈ 3.56 µM) | 100 (≈ 115 µM) | 6.3 (≈ 7.23 µM) | 12.5 (≈ 14.4 µM) | 3.1 (≈ 3.56 µM) | 0.8 (≈ 0.919 µM) | 3.1 (≈ 3.56 µM) | > 100 | 6.3 (≈ 7.23 µM) | 0.8 (≈ 0.919 µM) | 12.5 (≈ 14.4 µM) | 6.3 (≈ 7.23 µM) | 6.3 (≈ 7.23 µM) | MIC [17]: 3.1 µg/mL (≈ 3.56 µM); MIC (C. neoformans IAM4514): 0.8 µg/mL (≈ 0.919 µM); MIC [15]: 25 µg/mL (≈ 28.7 µM); MIC [16]: 3.1 µg/mL (≈ 3.56 µM); Solubility (Solubility; dimethyl sulfoxide, dimethyl-formamide, acidic or alkaline water): Soluble in dimethyl sulfoxide, dimethyl-formamide, and acidic or alkaline water; Solubility (Solubility; ethanol, methanol, and water): slightly soluble in ethanol, methanol, and water
